Measurements as given in patent US20250129103A1, “METHODS FOR TREATMENT OF CANCER” (Frontier Medicines Corporation, priority 2022, published 2025).

Target: KRAS G12C (GMPPNP-loaded) and cRAF (Ras-binding domain) interaction (Homo sapiens (Human), UniProt P01116, C118S/C51S/C80L/G12C)
Test: Inhibition of KRAS G12C and cRAF binding (AlphaScreen)
Details: KRAS G12C loaded with GMPPNP, cRaf RBD, 2 hours preincubation; read-out: Raf-1 RBD K-Ras IC50
Experimental: Compounds were diluted in 100% DMSO and each compound concentration was spotted at 200 nl/well onto low volume, white 384 well plates. […] KRAS G12C was preloaded with the GTP analogue Guanosine 5′-[β,γ-imido]triphosphate (GMPPNP). The KRAS G12C was diluted in 25 mM Hepes, pH 7.4, 150 mM NaCl, 5 mM MgCl2, 0.01% TritonX-100 and 10 μM GMPPNP and added at 10 ul/well to compound-spotted plates resulting in a DMSO concentration of 2%. Plates were incubated for 2 hours. A mixture of RBD and the AlphaScreen streptavidin donor and glutathione acceptor beads diluted in 25 mM Hepes, pH 7.4, 150 mM NaCl, 5 mM MgCl2, 0.01% TritonX-100 and 2% DMSO was then added at 10 ul/well and incubated for 60-90 minutes before the samples were read for emission at 570 nm after excitation of the donor beads at 680 nm. All incubations were performed at room temperature. The final top compound concentration was 50 μM with 1:3 titrations for 10-point dose response curves. […] IC50S were determined using nonlinear regression fit of [inhibitor] vs. response (4 parameters). […]

Sequence of KRAS G12C (GMPPNP-loaded) and cRAF (Ras-binding domain) interaction (P01116 other isoform, or with tags, fused parts or gaps G12C/C51S/C80L/C118S): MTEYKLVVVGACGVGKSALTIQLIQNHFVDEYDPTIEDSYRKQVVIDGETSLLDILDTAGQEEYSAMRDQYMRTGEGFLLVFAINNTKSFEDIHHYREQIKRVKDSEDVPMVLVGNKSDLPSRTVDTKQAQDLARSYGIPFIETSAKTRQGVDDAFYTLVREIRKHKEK

| SMILES | IC50 |
| --- | --- |
| N#CC[C@H]1CN(c2nc(OC[C@@]34CCCN3C[C@H](F)C4)nc3c(F)c(-c4cccc5cccc(Cl)c45)ncc23)CCN1C(=O)/C=C/CN1C[C@H]2COC[C@H]21 [Compound 291] | 0.01 to 0.1 µM |
| CC(F)(F)c1noc(/C=C/C(=O)N2CCN(c3nc(OCC45CCCN4CCC5)nc4c3CCN(c3cccc5cccc(Cl)c35)C4)C[C@@H]2CC#N)n1 [Compound 41] | 0.01 to 0.1 µM |
| Cc1nccc(/C=C/C(=O)N2CCN(c3nc(OC[C@@]45CCCN4C[C@H](F)C5)nc4c(F)c(-c5n[nH]c6cccc(Cl)c56)ncc34)C[C@@H]2CC#N)n1 [Compound 230] | > 0.5 µM |
| CC(C)c1noc(/C=C/C(=O)N2CCN(c3nc(OC[C@@]45CCCN4C[C@H](F)C5)nc4c3CCN(c3cccc5cccc(Cl)c35)C4)C[C@@H]2CC#N)n1 [Compound 125] | 0.01 to 0.1 µM |
| CO[C@@H]1CCN(C/C=C/C(=O)N2CCN(c3nc(OC[C@@]45CCCN4C[C@H](F)C5)nc4c(F)c(-c5cccc(Cl)c5C5CC5)ncc34)C[C@@H]2CC#N)C1 [Compound 288] | < 0.01 µM |
| Cn1nnc(/C=C/C(=O)N2CCN(c3nc(OCC45CCCN4CCC5)nc4c3CCN(c3cccc5cccc(Cl)c35)C4)C[C@@H]2CC#N)n1 [Compound 119] | > 0.5 µM |
| C[C@H]1CN(C/C=C/C(=O)N2CCN(c3nc(OCC45CCCN4CCC5)nc4c3CCN(c3cccc5cccc(Cl)c35)C4)C[C@@H]2CC#N)C[C@H](C)O1 [Compound 198] | < 0.01 µM |
| CN1CCN(C/C=C/C(=O)N2CCN(c3nc(OC[C@@]45CCCN4C[C@H](F)C5)nc4c(F)c(-c5cccc6cccc(Cl)c56)ncc34)C[C@@H]2CC#N)CC1 [Compound 280] | 0.01 to 0.1 µM |
| Cc1cc(/C=C/C(=O)N2CCN(c3nc(OC[C@@]45CCCN4C[C@H](F)C5)nc4c(F)c(-c5cccc6c(C)c(F)ccc56)ncc34)C[C@@H]2CC#N)nc(C)n1 [Compound 250] | 0.1 to 0.5 µM |
| N#CC[C@H]1CN(c2nc(OCC34CCCN3CCC4)nc3c2CCN(c2cccc4cccc(Cl)c24)C3)CCN1C(=O)/C=C/CN1C2COCC1C2 [Compound 199] | < 0.01 µM |
| C[C@H](F)c1noc(/C=C/C(=O)N2CCN(c3nc(OC[C@@]45CCCN4C[C@H](F)C5)nc4c(F)c(-c5cccc6cccc(Cl)c56)ncc34)C[C@@H]2CC#N)n1 [Compound 137] | 0.01 to 0.1 µM |
| N#CC[C@H]1CN(c2nc(OC[C@@]34CCCN3C[C@H](F)C4)nc3c(F)c(-c4cccc5ccc(F)c(F)c45)ncc23)CCN1C(=O)/C=C/CN1CCn2ccnc2C1 [Compound 263] | 0.01 to 0.1 µM |
| Cc1c(F)ccc2c(-c3ncc4c(N5CCN(C(=O)/C=C/CN6[C@@H]7CC[C@H]6COC7)[C@@H](CC#N)C5)nc(OC[C@@]56CCCN5C[C@H](F)C6)nc4c3F)cccc12 [Compound 251] | 0.1 to 0.5 µM |
| N#CC[C@H]1CN(c2nc(OC[C@@]34CCCN3C[C@H](F)C4)nc3c(F)c(-c4nc(N)cc5cccc(Cl)c45)ncc23)CCN1C(=O)/C=C/CN1CCOCC1 [Compound 59] | < 0.01 µM |
| CCc1c(Cl)cccc1-c1ncc2c(N3CCN(C(=O)/C=C/CN4[C@@H]5CC[C@H]4COC5)[C@@H](CC#N)C3)nc(OC[C@@]34CCCN3C[C@H](F)C4)nc2c1F [Compound 281] | 0.01 to 0.1 µM |
| N#CC[C@H]1CN(c2nc(OC[C@@]34CCCN3C[C@H](F)C4)nc3c(F)c(-c4cccc5cccc(Cl)c45)ncc23)CCN1C(=O)/C=C/CN1CCn2cnnc2C1 [Compound 270] | 0.1 to 0.5 µM |
| N#CC[C@H]1CN(c2nc(OC[C@@]34CCCN3C[C@H](F)C4)nc3c(F)c(-c4cccc5cccc(Cl)c45)ncc23)CCN1C(=O)/C=C/CN1CC[C@@H](OC(F)F)C1 [Compound 304] | < 0.01 µM |
| Cc1c(F)ccc2c(-c3ncc4c(N5CCN(C(=O)/C=C/CN6CC7CC(C6)O7)[C@@H](CC#N)C5)nc(OC[C@@]56CCCN5C[C@H](F)C6)nc4c3F)cccc12 [Compound 253] | > 0.5 µM |
| C[C@@H]1CN(C/C=C/C(=O)N2CCN(c3nc(OC[C@@]45CCCN4C[C@H](F)C5)nc4c(F)c(-c5cccc6cccc(F)c56)ncc34)C[C@@H]2CC#N)C[C@H](C)O1 [Compound 234] | 0.01 to 0.1 µM |
| CC(C)N1CC[C@@H]1/C=C/C(=O)N1CCN(c2nc(OC[C@@]34CCCN3C[C@H](F)C4)nc3c(F)c(-c4cccc(Cl)c4C4CC4)ncc23)C[C@@H]1CC#N [Compound 313] | 0.1 to 0.5 µM |
| CC(C)c1noc(/C=C/C(=O)N2CCN(c3nc(OC[C@]45CCCN4C[C@H](F)C5)nc4c(F)c(-c5cccc6ccc(F)c(Cl)c56)ncc34)C[C@@H]2CC#N)n1 [Compound 133] | 0.01 to 0.1 µM |
| C[C@@H]1CN(C/C=C/C(=O)N2CCN(c3nc(OCC45CCCN4CCC5)nc4c3CCN(c3cccc5cccc(Cl)c35)C4)C[C@@H]2CC#N)C[C@H](C)O1 [Compound 196] | 0.01 to 0.1 µM |
| Cc1cc(/C=C/C(=O)N2CCN(c3nc(OC[C@@]45CCCN4C[C@H](F)C5)nc4c(F)c(-c5cccc6ccccc56)ncc34)C[C@@H]2CC#N)nc(C)n1 [Compound 209] | 0.1 to 0.5 µM |

| SMILES | IC50 |
| --- | --- |
| CC1(c2noc(/C=C/C(=O)N3CCN(c4nc(OC[C@@]56CCCN5C[C@H](F)C6)nc5c4CCN(c4cccc6cccc(Cl)c46)C5)C[C@@H]3CC#N)n2)CC1 [Compound 46] | 0.01 to 0.1 µM |
| N#CC[C@H]1CN(c2nc(OCC34CCCN3CCC4)nc3c(F)c(-c4cccc5ccc(F)c(Cl)c45)ncc23)CCN1C(=O)/C=C/CN1CCOCC1 [Compound 179] | < 0.01 µM |
| N#CC[C@H]1CN(c2nc(OCC34CCCN3CCC4)nc3c2CCN(c2cccc4cccc(Cl)c24)C3)CCN1C(=O)/C=C/CN1CCC(F)(F)C1 [Compound 176] | 0.01 to 0.1 µM |
| N#CC[C@H]1CN(c2nc(OC[C@@]34CCCN3C[C@H](F)C4)nc3c(F)c(-c4cccc5cccc(Cl)c45)ncc23)CCN1C(=O)/C=C/CN1CCn2ncnc2C1 [Compound 267] | 0.01 to 0.1 µM |
| Cc1nccc(/C=C/C(=O)N2CCN(c3nc(OC[C@@]45CCCN4C[C@H](F)C5)nc4c(F)c(-c5ccccc5C(F)F)ncc34)C[C@@H]2CC#N)n1 [Compound 290] | > 0.5 µM |
| Cn1cnc(/C=C/C(=O)N2CCN(c3nc(OC[C@@]45CCCN4C[C@H](F)C5)nc4c3CCN(c3cccc5cccc(Cl)c35)C4)C[C@@H]2CC#N)c1 [Compound 44] | 0.1 to 0.5 µM |
| N#CC[C@H]1CN(c2nc(OC[C@@]34CCCN3C[C@H](F)C4)nc3c(F)c(-c4cccc5cccc(Cl)c45)ncc23)CCN1C(=O)/C=C/CN1CCn2ncnc2C1 [Compound 265] | 0.1 to 0.5 µM |
| C=C(C)c1c(Cl)cccc1-c1ncc2c(N3CCN(C(=O)/C=C/CN4C5CCC4COC5)[C@@H](CC#N)C3)nc(OC[C@@]34CCCN3C[C@H](F)C4)nc2c1F [Compound 326] | < 0.01 µM |
| N#CC[C@H]1CN(c2nc(OCC34CCCN3CCC4)nc3c(F)c(-c4cccc5cccc(Cl)c45)ncc23)CCN1C(=O)/C=C/CN1C[C@@H]2C[C@H]1CO2 [Compound 184] | < 0.01 µM |
| CC1(/C=C/C(=O)N2CCN(c3nc(OCC45CCCN4CCC5)nc4c3CCN(c3cccc5cccc(Cl)c35)C4)C[C@@H]2CC#N)COC1 [Compound 116] | > 0.5 µM |
| C[C@@H](F)c1noc(/C=C/C(=O)N2CCN(c3nc(OC[C@@]45CCCN4C[C@H](F)C5)nc4c(F)c(-c5cccc6cccc(Cl)c56)ncc34)C[C@@H]2CC#N)n1 [Compound 130] | 0.01 to 0.1 µM |
| N#CC[C@H]1CN(c2nc(OCC34CCCN3CCC4)nc3c2CCN(c2cccc4cccc(Cl)c24)C3)CCN1C(=O)/C=C/CN1CC2CCC(C1)O2 [Compound 167] | < 0.01 µM |
| N#CC[C@H]1CN(c2nc(OCC34CCCN3CCC4)nc3c(F)c(-c4cccc5cccc(Cl)c45)ncc23)CCN1C(=O)/C=C/CN1C[C@H]2C[C@@H]1CO2 [Compound 185] | < 0.01 µM |
| CCN1CC[C@@H]1/C=C/C(=O)N1CCN(c2nc(OC[C@@]34CCCN3C[C@H](F)C4)nc3c(F)c(-c4cccc(Cl)c4C4CC4)ncc23)C[C@@H]1CC#N [Compound 312] | 0.01 to 0.1 µM |
| C[C@@H]1CN(C/C=C/C(=O)N2CCN(c3nc(OC[C@@]45CCCN4C[C@H](F)C5)nc4c(F)c(-c5cccc(Cl)c5C5CC5)ncc34)C[C@@H]2CC#N)C[C@@H](C)O1 [Compound 301] | 0.01 to 0.1 µM |
| Cn1cnc(/C=C/C(=O)N2CCN(c3nc(OC[C@@]45CCCN4C[C@H](F)C5)nc4c(F)c(-c5cccc6cccc(Cl)c56)ncc34)C[C@@H]2CC#N)n1 [Compound 40] | > 0.5 µM |
| N#CC[C@H]1CN(c2nc(OCC34CCCN3CCC4)nc3c2CCN(c2cccc4cccc(Cl)c24)C3)CCN1C(=O)/C=C/CN1CC2(COC2)C1 [Compound 194] | < 0.01 µM |
| CC(=O)N1CCN(C/C=C/C(=O)N2CCN(c3nc(OC[C@@]45CCCN4C[C@H](F)C5)nc4c(F)c(-c5cccc6cccc(Cl)c56)ncc34)C[C@@H]2CC#N)CC1 [Compound 324] | < 0.01 µM |
| N#CC[C@H]1CN(c2nc(OCC34CCCN3CCC4)nc3c2CCN(c2cccc4cccc(Cl)c24)C3)CCN1C(=O)/C=C/CN1CC2CC(C1)O2 [Compound 166] | < 0.01 µM |
| N#CC[C@H]1CN(c2nc(OCC34CCCN3CCC4)nc3c2CCN(c2cccc4cccc(Cl)c24)C3)CCN1C(=O)/C=C/CN1CCOC2CC21 (stereo partly drawn) [Compound 164] | 0.01 to 0.1 µM |
| CN1CCN(C/C=C/C(=O)N2CCN(c3nc(OC[C@@]45CCCN4C[C@H](F)C5)nc4c(F)c(-c5cccc(Cl)c5C5CC5)ncc34)C[C@@H]2CC#N)CC1 [Compound 286] | 0.01 to 0.1 µM |
| CC(C)c1noc(/C=C/C(=O)N2CCN(c3nc(OCC45CCCN4CCC5)nc4c3CCN(c3ccccc3C(F)F)C4)C[C@@H]2CC#N)n1 [Compound 144] | > 0.5 µM |
